Measured values as given in patent publication US11427567B2, “Imidazolyl pyrimidinylamine compounds as CDK2 inhibitors” (Incyte Corporation, priority 2019, dated 2022).

Target: CDK2/Cyclin E1 (Homo sapiens (Human), UniProt P24941)
Assay: CDK2/Cyclin E1 HTRF enzyme activity assay (Example A)
Assay type: biochemical
Conditions: 1 mM ATP
Method: Assays were conducted in white 384-well polystyrene plates in a final reaction volume of 8 μL. […] HTRF signals were read after 1 hour at room temperature on a PHERAstar FS plate reader (BMG Labtech). Data was analyzed with IDBS XLFit and GraphPad Prism 5.0 software using a three or four parameter dose response curve to determine IC50 for each compound.

| Compound | IC50 [nM] |
| --- | --- |
| CNC(C)c1ccc(-n2cnc(-c3nc(NC4CCN(S(C)(=O)=O)CC4)ncc3C(F)(F)F)c2)c(Cl)c1 (single isomer, unassigned) [Example 275, 4-(1-(2-Chloro-4-(1-(methylamino)ethyl)phenyl)-1H-imidazol-4-yl)-N-(1-(methylsulfonyl)piperidin-4-yl)-5-(trifluoromethyl)pyrimidin-2-amine] | ≤ 50 |
| CNC(C)c1ccc(-n2cnc(-c3nc(NC4CCN(S(C)(=O)=O)CC4)ncc3C(F)(F)F)c2)c(Cl)c1 (single isomer, unassigned) [Example 276, 4-(1-(2-Chloro-4-(1-(methylamino)ethyl)phenyl)-1H-imidazol-4-yl)-N-(1-(methylsulfonyl)piperidin-4-yl)-5-(trifluoromethyl)pyrimidin-2-amine] | ≤ 50 |
| C[C@@H]1CN(S(C)(=O)=O)CC[C@@H]1Nc1ncc(C(F)(F)F)c(-c2cn(-c3ccc(C4CCCCN4)cc3Cl)cn2)n1 (single isomer, unassigned) [Example 277] | ≤ 50 |
| C[C@@H]1CN(S(C)(=O)=O)CC[C@@H]1Nc1ncc(C(F)(F)F)c(-c2cn(-c3ccc(C4CCCCN4)cc3Cl)cn2)n1 (single isomer, unassigned) [Example 278] | ≤ 50 |
| CS(=O)(=O)N1CCC(Nc2ncc(C(F)(F)F)c(-c3cn(-c4ccc(C#N)cc4Cl)cn3)n2)CC1 [Example 1, 3-Chloro-4-(4-(2-((1-(methylsulfonyl)piperidin-4-yl)amino)-5-(trifluoromethyl)pyrimidin-4-yl)-1H-imidazol-1-yl)benzonitrile] | ≤ 50 |
| CS(=O)(=O)N1CCC(Nc2ncc(C(F)(F)F)c(-c3cn(-c4c(Cl)cccc4C#N)cn3)n2)CC1 [Example 2, 3-Chloro-2-(4-(2-((1-(methylsulfonyl)piperidin-4-yl)amino)-5-(trifluoromethyl)pyrimidin-4-yl)-1H-imidazol-1-yl)benzonitrile] | ≤ 50 |
| CNCc1ccc(-n2cnc(-c3nc(NC4CCN(S(C)(=O)=O)CC4)ncc3C(F)(F)F)c2)c(Cl)c1 [Example 3, 4-(1-(2-Chloro-4-((methylamino)methyl)phenyl)-1H-imidazol-4-yl)-N-(1-(methylsulfonyl)piperidin-4-yl)-5-(trifluoromethyl)pyrimidin-2-amine] | ≤ 50 |
| Cn1cnc(S(=O)(=O)N2CCC(Nc3ncc(C(F)(F)F)c(-c4cn(-c5ccc(C#N)cc5Cl)cn4)n3)CC2)c1 [Example 4, 3-Chloro-4-(4-(2-((1-((1-methyl-1H-imidazol-4-yl)sulfonyl)piperidin-4-yl)amino)-5-(trifluoromethyl)pyrimidin-4-yl)-1H-imidazol-1-yl)benzonitrile] | ≤ 50 |
| Cn1cnc(S(=O)(=O)N2CCC(Nc3ncc(C(F)(F)F)c(-c4cn(-c5c(Cl)cccc5C#N)cn4)n3)CC2)c1 [Example 5, 3-Chloro-2-(4-(2-((1-((1-methyl-1H-imidazol-4-yl)sulfonyl)piperidin-4-yl)amino)-5-(trifluoromethyl)pyrimidin-4-yl)-1H-imidazol-1-yl)benzonitrile] | ≤ 50 |
| Cn1cnc(S(=O)(=O)N2CCC(Nc3ncc(C(F)(F)F)c(-c4cn(-c5cc(N)ncc5F)cn4)n3)CC2)c1 [Example 6, 4-(1-(2-Amino-5-fluoropyridin-4-yl)-1H-imidazol-4-yl)-N-(1-((1-methyl-1H-imidazol-4-yl)sulfonyl)piperidin-4-yl)-5-(trifluoromethyl)pyrimidin-2-amine] | ≤ 50 |
| Cc1c(-n2cnc(-c3nc(NC4CCN(S(=O)(=O)c5cn(C)cn5)CC4)ncc3C(F)(F)F)c2)ccnc1C#N [Example 7, 3-Methyl-4-(4-(2-((1-((1-methyl-1H-imidazol-4-yl)sulfonyl)piperidin-4-yl)amino)-5-(trifluoromethyl)pyrimidin-4-yl)-1H-imidazol-1-yl)picolinonitrile] | ≤ 50 |
| CC(=O)Nc1nccc(-n2cnc(-c3nc(NC4CCN(S(=O)(=O)c5cn(C)cn5)CC4)ncc3C(F)(F)F)c2)c1C [Example 8, N-(3-Methyl-4-(4-(2-((1-((1-methyl-1H-imidazol-4-yl)sulfonyl)piperidin-4-yl)amino)-5-(trifluoromethyl)pyrimidin-4-yl)-1H-imidazol-1-yl)pyridin-2-yl)acetamide] | ≤ 50 |
| Cc1c(-n2cnc(-c3nc(NC4CCN(S(=O)(=O)c5cn(C)cn5)CC4)ncc3C(F)(F)F)c2)ccnc1N [Example 9, 4-(1-(2-Amino-3-methylpyridin-4-yl)-1H-imidazol-4-yl)-N-(1-((1-methyl-1H-imidazol-4-yl)sulfonyl)piperidin-4-yl)-5-(trifluoromethyl)pyrimidin-2-amine] | ≤ 50 |
| Cn1cnc(-c2nc(NC3CCN(S(=O)(=O)c4cn(C)cn4)CC3)ncc2C(F)(F)F)c1 [Example 10, 4-(1-Methyl-1H-imidazol-4-yl)-N-(1-((1-methyl-1H-imidazol-4-yl)sulfonyl)piperidin-4-yl)-5-(trifluoromethyl)pyrimidin-2-amine] | ≤ 50 |
| Cn1cnc(-c2nc(NC3CCN(S(C)(=O)=O)CC3)ncc2C(F)(F)F)c1 [Example 11, 4-(1-Methyl-1H-imidazol-4-yl)-N-(1-(methylsulfonyl)piperidin-4-yl)-5-(trifluoromethyl)pyrimidin-2-amine] | ≤ 50 |
| Cn1c(Cl)nc(-c2nc(NC3CCN(S(C)(=O)=O)CC3)ncc2C(F)(F)F)c1Cl [Example 12, 4-(2,5-Dichloro-1-methyl-1H-imidazol-4-yl)-N-(1-(methylsulfonyl)piperidin-4-yl)-5-(trifluoromethyl)pyrimidin-2-amine] | ≤ 50 |

| Compound | IC50 [nM] |
| --- | --- |
| Cn1cnc(-c2nc(NC3CCN(S(C)(=O)=O)CC3)ncc2C(F)(F)F)c1Br [Example 13, 4-(5-Bromo-1-methyl-1H-imidazol-4-yl)-N-(1-(methylsulfonyl)piperidin-4-yl)-5-(trifluoromethyl)pyrimidin-2-amine] | ≤ 50 |
| Cn1cnc(-c2nc(NC3CCN(S(C)(=O)=O)CC3)ncc2C(F)(F)F)c1Cl [Example 14, 4-(5-Chloro-1-methyl-1H-imidazol-4-yl)-N-(1-(methylsulfonyl)piperidin-4-yl)-5-(trifluoromethyl)pyrimidin-2-amine] | ≤ 50 |
| Cc1c(-c2nc(NC3CCN(S(C)(=O)=O)CC3)ncc2C(F)(F)F)ncn1C [Example 15, 4-(1,5-Dimethyl-1H-imidazol-4-yl)-N-(1-(methylsulfonyl)piperidin-4-yl)-5-(trifluoromethyl)pyrimidin-2-amine] | 50 to 200 |
| Cn1cnc(-c2nc(NC3CCN(S(C)(=O)=O)CC3)ncc2C(F)(F)F)c1C#N [Example 16, 1-Methyl-4-(2-((1-(methylsulfonyl)piperidin-4-yl)amino)-5-(trifluoromethyl)pyrimidin-4-yl)-1H-imidazole-5-carbonitrile] | ≤ 50 |
| Cn1cc(-c2nc(NC3CCN(S(C)(=O)=O)CC3)ncc2C(F)(F)F)nc1CO [Example 17, (1-Methyl-4-(2-((1-(methylsulfonyl)piperidin-4-yl)amino)-5-(trifluoromethyl)pyrimidin-4-yl)-1H-imidazol-2-yl)methanol] | ≤ 50 |
| Cn1cc(-c2nc(NC3CCN(S(C)(=O)=O)CC3)ncc2C(F)(F)F)nc1CC(C)(C)O [Example 18, 2-Methyl-1-(1-methyl-4-(2-((1-(methylsulfonyl)piperidin-4-yl)amino)-5-(trifluoromethyl)pyrimidin-4-yl)-1H-imidazol-2-yl)propan-2-ol] | ≤ 50 |
| Cc1nc(-c2nc(NC3CCN(S(C)(=O)=O)CC3)ncc2C(F)(F)F)cn1C [Example 19, 4-(1,2-Dimethyl-1H-imidazol-4-yl)-N-(1-(methylsulfonyl)piperidin-4-yl)-5-(trifluoromethyl)pyrimidin-2-amine] | 50 to 200 |
| Cn1cnc(S(=O)(=O)N2CCC(Nc3ncc(C(F)(F)F)c(-c4ncn(C)c4Cl)n3)CC2)c1 [Example 20, 4-(5-Chloro-1-methyl-1H-imidazol-4-yl)-N-(1-((1-methyl-1H-imidazol-4-yl)sulfonyl)piperidin-4-yl)-5-(trifluoromethyl)pyrimidin-2-amine] | ≤ 50 |
| CS(=O)(=O)N1CCC(Nc2ncc(C(F)(F)F)c(-c3cn(CC(F)F)cn3)n2)CC1 [Example 21, 4-(1-(2,2-Difluoroethyl)-1H-imidazol-4-yl)-N-(1-(methylsulfonyl)piperidin-4-yl)-5-(trifluoromethyl)pyrimidin-2-amine] | ≤ 50 |
| CC(C)(O)Cn1cnc(-c2nc(NC3CCN(S(C)(=O)=O)CC3)ncc2C(F)(F)F)c1 [Example 22, 2-Methyl-1-(4-(2-((1-(methylsulfonyl)piperidin-4-yl)amino)-5-(trifluoromethyl)pyrimidin-4-yl)-1H-imidazol-1-yl)propan-2-ol] | ≤ 50 |
| CS(=O)(=O)N1CCC(Nc2ncc(C(F)(F)F)c(-c3cn(CC(F)(F)F)cn3)n2)CC1 [Example 23, N-(1-(Methylsulfonyl)piperidin-4-yl)-4-(1-(2,2,2-trifluoroethyl)-1H-imidazol-4-yl)-5-(trifluoromethyl)pyrimidin-2-amine] | ≤ 50 |
| CS(=O)(=O)N1CCC(Nc2ncc(C(F)(F)F)c(-c3cn(C4CCOCC4)cn3)n2)CC1 [Example 24, N-(1-(Methylsulfonyl)piperidin-4-yl)-4-(1-(tetrahydro-2H-pyran-4-yl)-1H-imidazol-4-yl)-5-(trifluoromethyl)pyrimidin-2-amine] | ≤ 50 |
| CS(=O)(=O)N1CCC(Nc2ncc(C(F)(F)F)c(-c3cn(C(CC#N)C4CC4)cn3)n2)CC1 (stereo not shown) [Example 25, 3-Cyclopropyl-3-(4-(2-((1-(methylsulfonyl)piperidin-4-yl)amino)-5-(trifluoromethyl)pyrimidin-4-yl)-1H-imidazol-1-yl)propanenitrile] | ≤ 50 |
| CS(=O)(=O)N1CCC(Nc2ncc(C#N)c(-c3cn(CC(F)F)cn3)n2)CC1 [Example 26, 4-(1-(2,2-Difluoroethyl)-1H-imidazol-4-yl)-2-((1-(methylsulfonyl)piperidin-4-yl)amino)pyrimidine-5-carbonitrile] | ≤ 50 |
| CC(C)(O)Cn1cnc(-c2nc(NC3CCN(S(C)(=O)=O)CC3)ncc2C#N)c1 [Example 27, 4-(1-(2-Hydroxy-2-methylpropyl)-1H-imidazol-4-yl)-2-((1-(methylsulfonyl)piperidin-4-yl)amino)pyrimidine-5-carbonitrile] | ≤ 50 |
